Test results reported in patent publication US9533985B2, “Sulfonamide derivative and medicinal use thereof” (EA Pharma Co., Ltd., priority 2012, dated 2017).

Experiments:
Assay type in all cases: cell-based
α4β1 integrin = α4β1 integrin (Homo sapiens (Human), UniProt P05556+P13612); assay: VCAM-1/α4β1 integrin binding inhibitory activity evaluation test (Jurkat cell adhesion to VCAM-1/Fc); details: Jurkat cells binding to recombinant human VCAM-1/Fc
Method: The ability of test substances to inhibit the binding of a human T-cell line, Jurkat, which is known to express α4β1 integrin, to VCAM-1 was measured. To 96-well microtiter plates, recombinant human VCAM-1/Fc (R&D systems) solution (1 μg/mL) diluted with buffer A (carbonate buffer, pH 9.6) was added at 50 μL/well, followed by incubation at 4° C. overnight. After washing once with PBS, Block Ace (Snow Brand Milk Products Company, Limited) was added at 150 μL/well, followed by incubation at room temperature for 2 hours. After removal, washing was conducted once with PBS. 100 μL of each test substance diluted with a binding buffer (DMEM containing 40 mM HEPES, 0.2% BSA, and 4 mM MnCl2) to various concentrations and 100 μL of the Jurkat cells (2×10^6 cell/mL) were added to the plates coated with VCAM-1/Fc (5×10^5 cells/well), followed by incubation at 30° C. for 15 minutes to 60 minutes. After the cells were bound to each well, unbound cells were removed by washing with PBS. To the plates, buffer C (PBS containing 1.5% Triton X-100) was added at 50 μL/well to lyse the bound Jurkat cells. To 30 μL of the cell lysate, 30 μL of Substrate Buffer (Promega, CytoTox 96 Non-Radioactive Cytotoxicity Assay) was added, and the reaction was allowed to proceed at room temperature in a dark place for 30 minutes. To each well, 30 μL of Stop Solution (Promega, CytoTox 96 Non-Radioactive Cytotoxicity Assay) was added, and the absorbance at 490 nm was measured by using a plate reader. Here, by the obtained absorbance, the activity of the lactate dehydrogenase (LDH) dissolved into the supernatant of each well was detected. In other words, the absorbance was proportional to the number of the Jurkat cells bound to VCAM-1 and remaining on the plate. The test was duplicated. The binding ratios of the cells at various concentrations were determined, with the absorbance of a well containing no test substances taken as 100%. Then, the concentration IC50, at which 50% binding inhibition was achieved, was calculated. […] Note that, among the compounds synthesized in the corresponding Examples, the compounds in the free form (Compounds A-1 to A-39) were used as the test compounds. Hereinafter, the same shall apply.

α4β7 integrin [1] = molecular target: T1, α4β7 integrin (Homo sapiens (Human), UniProt P13612+P26010); assay: MAdCAM-1/α4β7 integrin binding inhibitory activity evaluation test (RPMI-8866 cell adhesion to MAdCAM-1/Fc); details: for Selectivity: IC50 in VCAM-1/α4β1 test divided by IC50 in MAdCAM-1/α4β7 test; for IC50: RPMI-8866 cells binding to recombinant mouse MAdCAM-1/Fc, no serum
Method: The ability of test substances to inhibit the binding of a human B cell line, RPMI-8866, which is known to express α4β7 integrin, to MAdCAM-1 was measured. To 96-well microtiter plates, recombinant mouse MAdCAM-1/Fc (R&D systems) solution (0.75 μg/mL) diluted with buffer A (carbonate buffer solution, pH 9.6) was added at 50 μL/well, followed by incubation at 4° C. overnight. After washing once with PBS, Block Ace (Snow Brand Milk Products Company, Limited) was added at 150 μL/well, followed by incubation at room temperature for 2 hours. After removal, washing was conducted once with PBS. 100 μL of each test substance diluted with binding buffer (DMEM containing 40 mM HEPES, 0.2% BSA, and 4 mM MnCl2) to various concentrations and 100 μL of RPMI-8866 cells (2×10^6 cell/mL) were added to the plates coated with MAdCAM-1/Fc (5×10^5 cells/well), followed by incubation at 30° C. for 15 minutes to 60 minutes. After the cells were bound to each well, unbound cells were removed by washing with PBS. To the plates, buffer C (PBS containing 1.5% Triton X-100) was added at 50 μL/well to lyse the bound RPMI-8866 cells. To 30 μL of the cell lysate, 30 μL of Substrate Buffer (Promega, CytoTox 96 Non-Radioactive Cytotoxicity Assay) was added, and the reaction was allowed to proceed at room temperature in a dark place for 30 minutes. To each well, 30 μL of Stop Solution (Promega, CytoTox 96 Non-Radioactive Cytotoxicity Assay) was added, and the absorbance at 490 nm was measured by using a plate reader. Here, by the obtained absorbance, the activity of the lactate dehydrogenase (LDH) dissolved into the supernatant of each well was detected. In other words, the absorbance was proportional to the number of the RPMI-8866 cells bound to MAdCAM-1 and remaining on the plate. The test was duplicated. The binding ratios of the cells at various concentrations were determined, with the absorbance of a well containing no test substance taken as 100%. Then, the concentration IC50, at which 50% binding inhibition was achieved, was calculated. […] Note that the selectivity in the table was determined by dividing the IC50 value in VCAM-1/α4β1 Integrin Binding Inhibitory Activity Evaluation Test by the IC50 value in the MAdCAM-1/α4β7 integrin binding inhibitory activity evaluation test.

α4β7 integrin [2] = molecular target: T1, α4β7 integrin; assay: MAdCAM-1/α4β7 integrin binding inhibitory activity evaluation test in the presence of serum (1); details: RPMI-8866 cells binding to mouse MAdCAM-1/Fc, human serum at final concentration of 50%; read-out: α4β7 with serum added, IC50
Method: The ability of test substances to inhibit the binding of a human B cell line, RPMI-8866, which is known to express α4β7 integrin, to MAdCAM-1 was measured. To 96-well microtiter plates, recombinant mouse MAdCAM-1/Fc (R&D systems) solution (1 μg/mL) diluted with buffer A (carbonate buffer, pH 9.6) was added at 50 μL/well, followed by incubation at 4° C. overnight. After washing once with PBS, Block Ace (Snow Brand Milk Products Company, Limited) was added at 150 μL/well, followed by incubation at room temperature for 2 hours. After removal, washing was conducted once with PBS. 100 μL of each test substance diluted with a binding buffer (DMEM containing 40 mM HEPES, 0.2% BSA, and 4 mM MnCl2) to various concentrations and 100 μL of RPMI-8866 cells (2×10^6 cell/mL) were added to plates coated with MAdCAM-1/Fc (5×10^5 cells/well) with human serum being contained at a final concentration of 50%, followed by incubation at 30° C. for 15 minutes to 60 minutes. After the cells were bound to each well, unbound cells were removed by washing with PBS. To the plates, buffer C (PBS containing 1.5% Triton X-100) was added at 50 μL/well to lyse the bound RPMI-8866 cells. To 30 μL of the cell lysate, 30 μL of Substrate Buffer (Promega, CytoTox 96 Non-Radioactive Cytotoxicity Assay) was added, and the reaction was allowed to proceed at room temperature in a dark place for 30 minutes. To each well, 30 μL of Stop Solution (Promega, CytoTox 96 Non-Radioactive Cytotoxicity Assay) was added, and the absorbance at 490 nm was measured by using a plate reader. Here, by the obtained absorbance, the activity of the lactate dehydrogenase (LDH) dissolved into the supernatant of each well was detected. In other words, the absorbance was proportional to the number of the RPMI-8866 cells bound to MAdCAM-1 and remaining on the plate. The test was duplicated. The binding ratios of the cells at various concentrations were determined, with the absorbance of a well containing no test substance taken as 100%. Then, the concentration IC50, at which 50% binding inhibition was achieved, was calculated.

Sequence of α4β1 integrin (P13612 34-1032): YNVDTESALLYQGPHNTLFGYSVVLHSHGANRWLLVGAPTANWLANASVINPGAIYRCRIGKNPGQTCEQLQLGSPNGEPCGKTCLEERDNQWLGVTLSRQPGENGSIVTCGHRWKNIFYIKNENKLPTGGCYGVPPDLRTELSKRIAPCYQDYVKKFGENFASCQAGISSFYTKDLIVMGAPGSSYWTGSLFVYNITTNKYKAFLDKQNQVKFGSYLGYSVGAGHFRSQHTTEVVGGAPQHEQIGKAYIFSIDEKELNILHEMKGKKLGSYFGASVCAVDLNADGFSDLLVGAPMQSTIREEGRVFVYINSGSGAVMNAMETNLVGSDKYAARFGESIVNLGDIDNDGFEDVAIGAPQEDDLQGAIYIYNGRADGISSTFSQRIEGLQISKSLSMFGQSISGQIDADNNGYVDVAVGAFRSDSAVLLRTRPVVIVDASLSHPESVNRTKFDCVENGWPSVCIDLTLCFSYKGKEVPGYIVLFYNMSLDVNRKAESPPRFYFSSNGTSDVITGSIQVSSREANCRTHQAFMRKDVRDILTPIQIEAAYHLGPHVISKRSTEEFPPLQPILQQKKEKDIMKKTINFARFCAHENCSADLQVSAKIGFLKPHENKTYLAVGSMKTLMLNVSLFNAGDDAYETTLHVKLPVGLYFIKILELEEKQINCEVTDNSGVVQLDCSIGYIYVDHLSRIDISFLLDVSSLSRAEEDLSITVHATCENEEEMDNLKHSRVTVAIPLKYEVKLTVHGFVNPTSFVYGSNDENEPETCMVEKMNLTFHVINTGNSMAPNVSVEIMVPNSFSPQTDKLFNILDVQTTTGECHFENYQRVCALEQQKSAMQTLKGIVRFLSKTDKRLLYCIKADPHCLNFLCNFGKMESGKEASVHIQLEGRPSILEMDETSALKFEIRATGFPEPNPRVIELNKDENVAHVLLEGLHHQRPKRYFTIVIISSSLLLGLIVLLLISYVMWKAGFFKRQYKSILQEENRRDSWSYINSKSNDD
Sequence of α4β1 integrin (P05556 21-798): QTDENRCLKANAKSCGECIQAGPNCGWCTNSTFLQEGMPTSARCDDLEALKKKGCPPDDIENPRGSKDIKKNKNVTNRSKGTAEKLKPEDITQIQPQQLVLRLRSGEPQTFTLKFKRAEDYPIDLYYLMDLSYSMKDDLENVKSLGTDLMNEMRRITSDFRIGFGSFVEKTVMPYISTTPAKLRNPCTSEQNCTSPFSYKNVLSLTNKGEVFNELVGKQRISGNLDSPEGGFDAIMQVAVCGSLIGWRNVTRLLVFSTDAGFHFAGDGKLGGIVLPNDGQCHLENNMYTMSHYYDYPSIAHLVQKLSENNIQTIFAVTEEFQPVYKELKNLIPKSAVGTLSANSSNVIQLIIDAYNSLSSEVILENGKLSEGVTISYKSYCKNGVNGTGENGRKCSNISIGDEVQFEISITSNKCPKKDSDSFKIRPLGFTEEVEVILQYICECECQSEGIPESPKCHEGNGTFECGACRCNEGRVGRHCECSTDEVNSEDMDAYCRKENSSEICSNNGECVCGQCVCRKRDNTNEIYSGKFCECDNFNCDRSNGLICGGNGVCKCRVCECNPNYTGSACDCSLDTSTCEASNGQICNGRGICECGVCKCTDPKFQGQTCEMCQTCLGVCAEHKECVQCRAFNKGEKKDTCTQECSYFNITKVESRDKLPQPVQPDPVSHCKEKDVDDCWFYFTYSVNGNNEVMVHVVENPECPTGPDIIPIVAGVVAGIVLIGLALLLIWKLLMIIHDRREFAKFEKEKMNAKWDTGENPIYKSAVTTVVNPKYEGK
T1 sequence (P13612 34-1032): as the sequence (P13612 34-1032) above
T1 sequence (P26010 20-798): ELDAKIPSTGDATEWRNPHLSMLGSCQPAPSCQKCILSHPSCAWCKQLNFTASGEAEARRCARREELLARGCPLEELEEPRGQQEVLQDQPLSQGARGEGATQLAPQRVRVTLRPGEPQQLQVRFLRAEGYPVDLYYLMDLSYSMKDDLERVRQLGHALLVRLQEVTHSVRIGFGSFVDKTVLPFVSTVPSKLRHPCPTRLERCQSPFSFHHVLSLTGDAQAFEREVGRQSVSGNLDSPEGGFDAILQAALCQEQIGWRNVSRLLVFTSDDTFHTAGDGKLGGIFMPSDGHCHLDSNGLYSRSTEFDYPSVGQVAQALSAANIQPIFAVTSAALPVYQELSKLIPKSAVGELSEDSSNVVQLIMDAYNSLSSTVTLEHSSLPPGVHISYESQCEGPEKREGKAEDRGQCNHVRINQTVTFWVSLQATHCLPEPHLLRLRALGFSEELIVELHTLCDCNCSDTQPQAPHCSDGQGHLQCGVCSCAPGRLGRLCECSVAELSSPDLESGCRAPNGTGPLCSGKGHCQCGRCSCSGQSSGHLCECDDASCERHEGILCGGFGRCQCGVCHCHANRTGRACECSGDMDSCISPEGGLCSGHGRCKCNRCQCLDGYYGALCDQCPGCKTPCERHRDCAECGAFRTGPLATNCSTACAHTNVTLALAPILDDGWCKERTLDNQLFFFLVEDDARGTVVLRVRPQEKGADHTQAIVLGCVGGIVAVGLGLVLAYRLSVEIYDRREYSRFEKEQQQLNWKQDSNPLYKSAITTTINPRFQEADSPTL

| SMILES | IC50 (α4β1 integrin) [nM] | Selectivity (α4β7 integrin [1]) | IC50 (α4β7 integrin [1]) [nM] | IC50 (α4β7 integrin [2]) [nM] |
| --- | --- | --- | --- | --- |
| CNCc1ccc(S(=O)(=O)Nc2ccc(C(=O)N[C@@H](Cc3ccc(-n4c(=O)c5ccncc5n(C)c4=O)cc3)C(=O)O)c(F)c2)cc1 [Example 52, N-{2-Fluoro-4-[({4-[(methylamino)methyl]phenyl}sulfonyl)amino]benzoyl}-4-(1-methyl-2,4-dioxo-1,4-dihydropyrido[3,4-d]pyrimidin-3(2H)-yl)-L-phenylalanine] | 550 | 210 | 2.6 | 13 |
| Cn1c(=O)n(-c2ccc(C[C@H](NC(=O)c3c(F)cc(NS(=O)(=O)c4ccc(-n5cncn5)nc4)cc3F)C(=O)O)cc2)c(=O)c2ccncc21 [Example 55, N-[2,6-Difluoro-4-({[6-(1H-1,2,4-triazol-1-yl)pyridin-3-yl]sulfonyl}amino)benzoyl]-4-(1-methyl-2,4-dioxo-1,4-dihydropyrido[3,4-d]pyrimidin-3(2H)-yl)-L-phenylalanine] | 45 | 170 | 0.27 | 4.6 |
| Cn1c(=O)n(-c2ccc(C[C@H](NC(=O)c3c(F)cc(NS(=O)(=O)c4ccc(-n5cccn5)cc4)cc3F)C(=O)O)cc2)c(=O)c2ccncc21 [Example 62, N-[2,6-Difluoro-4-({[4-(1H-pyrazol-1-yl)phenyl]sulfonyl}amino)benzoyl]-4-(1-methyl-2,4-dioxo-1,4-dihydropyrido[3,4-d]pyrimidin-3(2H)-yl)-L-phenylalanine] | 100 | 160 | 0.64 | 13 |
| Cn1c(=O)n(-c2ccc(C[C@H](NC(=O)c3c(F)cc(NS(=O)(=O)c4ccc(-c5nccs5)cn4)cc3F)C(=O)O)cc2)c(=O)c2ccncc21 [Example 59, N-[2,6-Difluoro-4-({[5-(1,3-thiazol-2-yl)pyridin-2-yl]sulfonyl}amino)benzoyl]-4-(1-methyl-2,4-dioxo-1,4-dihydropyrido[3,4-d]pyrimidin-3(2H)-yl)-L-phenylalanine] | 22 | 130 | 0.17 | 4.1 |

More lines, now with the values ahead:

| IC50 (α4β1 integrin) [nM] | Selectivity (α4β7 integrin [1]) | IC50 (α4β7 integrin [1]) [nM] | IC50 (α4β7 integrin [2]) [nM] | SMILES |
| --- | --- | --- | --- | --- |
| 150 | 330 | 0.46 | 8.7 | Cn1c(=O)n(-c2ccc(C[C@H](NC(=O)c3c(F)cc(NS(=O)(=O)c4ccc(-n5nccn5)cc4)cc3F)C(=O)O)cc2)c(=O)c2ccncc21 [Example 61, N-[2,6-Difluoro-4-({[4-(2H-1,2,3-triazol-2-yl)phenyl]sulfonyl}amino)benzoyl]-4-(1-methyl-2,4-dioxo-1,4-dihydropyrido[3,4-d]pyrimidin-3(2H)-yl)-L-phenylalanine] |
| 200 | 180 | 1.1 | 15 | COc1cc2c(=O)n(-c3ccc(C[C@H](NC(=O)c4c(F)cc(NS(=O)(=O)c5ccc(-c6ncccn6)cc5)cc4F)C(=O)O)cc3)c(=O)n(C)c2cn1 [Example 46, N-(2,6-Difluoro-4-{[(4-pyrimidin-2-yl-phenyl)sulfonyl]amino}benzoyl)-4-(6-methoxy-1-methyl-2,4-dioxo-1,4-dihydropyrido[3,4-d]pyrimidin-3(2H)-yl)-L-phenylalanine] |
| 210 | 380 | 0.55 | 11 | Cn1c(=O)n(-c2ccc(C[C@H](NC(=O)c3c(F)cc(NS(=O)(=O)c4ccc(-c5ccncc5)cc4)cc3F)C(=O)O)cc2)c(=O)c2ccncc21 [Example 67, N-(2,6-Difluoro-4-{[(4-pyridin-4-yl-phenyl)sulfonyl]amino}benzoyl)-4-(1-methyl-2,4-dioxo-1,4-dihydropyrido[3,4-d]pyrimidin-3(2H)-yl)-L-phenylalanine] |
| 270 | 660 | 0.41 | 21 | Cc1cc(-c2ccc(S(=O)(=O)Nc3cc(F)c(C(=O)N[C@@H](Cc4ccc(-n5c(=O)c6ccncc6n(C)c5=O)cc4)C(=O)O)c(F)c3)cc2)cc(C)n1 [Example 70, N-[4-({[4-(2,6-Dimethylpyridin-4-yl)phenyl]sulfonyl}amino)-2,6-difluorobenzoyl]-4-(1-methyl-2,4-dioxo-1,4-dihydropyrido[3,4-d]pyrimidin-3(2H)-yl)-L-phenylalanine] |
| 280 | 180 | 1.6 | 24 | Cn1c(=O)n(-c2ccc(C[C@H](NC(=O)c3c(F)cc(NS(=O)(=O)c4ccc(-c5ccoc5)cc4)cc3F)C(=O)O)cc2)c(=O)c2ccncc21 [Example 66, N-[2,6-Difluoro-4-({[4-(3-furyl)phenyl]sulfonyl}amino)benzoyl]-4-(1-methyl-2,4-dioxo-1,4-dihydropyrido[3,4-d]pyrimidin-3(2H)-yl)-L-phenylalanine] |
| 330 | 770 | 0.43 | 25 | Cc1cc(-c2ccc(S(=O)(=O)Nc3cc(F)c(C(=O)N[C@@H](Cc4ccc(-n5c(=O)c6ccncc6n(C)c5=O)cc4)C(=O)O)c(F)c3)cc2)ccn1 [Example 49, N-[2,6-Difluoro-4-({[4-(2-methylpyridin-4-yl)phenyl]sulfonyl}amino)benzoyl]-4-(1-methyl-2,4-dioxo-1,4-dihydropyrido[3,4-d]pyrimidin-3(2H)-yl)-L-phenylalanine] |
